In ChEMBL document CHEMBL3870356, “Investigation of a Bicyclo[1.1.1]pentane as a Phenyl Replacement within an LpPLA2 Inhibitor” (ACS Med Chem Lett, 2017):
≈ marks a conversion by molar mass, not a printed value.

Tests used:
[1] = Kinetic solubility of the compound by chemiluminescent nitrogen detection assay
[2] = Thermodynamic solubility of the compound in fasted state simulated intestinal fluid; assay type: ADME; settings: read-out: Therm_solubility
[3] = biological target: T1, Platelet-activating factor acetylhydrolase (Homo sapiens, UniProt Q13093); experiment: Inhibition of human recombinant LpPLA2
T1 sequence (Q13093 whole entry): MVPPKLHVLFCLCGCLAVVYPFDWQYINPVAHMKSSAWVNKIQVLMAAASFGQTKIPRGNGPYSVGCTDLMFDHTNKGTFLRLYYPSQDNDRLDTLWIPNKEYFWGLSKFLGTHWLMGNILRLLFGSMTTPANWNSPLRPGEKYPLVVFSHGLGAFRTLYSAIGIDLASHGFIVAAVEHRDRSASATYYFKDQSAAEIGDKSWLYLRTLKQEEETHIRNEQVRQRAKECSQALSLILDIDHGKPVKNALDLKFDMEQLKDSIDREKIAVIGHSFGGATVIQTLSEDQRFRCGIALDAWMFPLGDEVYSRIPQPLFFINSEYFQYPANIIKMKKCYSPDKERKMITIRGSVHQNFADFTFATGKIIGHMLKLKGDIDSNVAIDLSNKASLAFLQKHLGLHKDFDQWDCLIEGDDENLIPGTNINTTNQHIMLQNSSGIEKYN

[4] = Permeability of the compound at pH 7.4 by PAMPA; assay type: ADME; settings: read-out: permeability
[5] = Clearance in human liver microsomes; assay type: ADME
[6] = Lipophilicity, logD of the compound at pH 7.4 by chromatography; assay type: physicochemical; settings: buffer

| solubility kinetic [1] | solubility thermodynamic [2] | IC50 [3] | Papp [4] | CLH [5] | chromatographic logD [6] | Structure (SMILES) |
| --- | --- | --- | --- | --- | --- | --- |
| 8 µM (≈ 5.33 µg/mL) | 399 µg/mL (≈ 598 µM) | – | – | – | – | CCN(CC)CCN(Cc1ccc(-c2ccc(C(F)(F)F)cc2)cc1)C(=O)Cn1c(SCc2ccc(F)cc2)nc(=O)c2c1CCC2 [DARAPLADIB] |
| 74 µM (≈ 48.6 µg/mL) | > 1000 µg/mL | 0.398 nM | 70.5 ×10⁻⁶ cm/s | 1.22 mL/min/g | 7 | CCN(CC)CCN(CC12CC(c3ccc(C(F)(F)F)cc3)(C1)C2)C(=O)Cn1c(SCc2ccc(F)cc2)nc(=O)c2c1CCC2 |
| 32 µM (≈ 23.2 µg/mL) | 635 µg/mL (≈ 875 µM) | – | – | 0.76 mL/min/g | 7.06 | COCCN1CCC(N(CC23CC(c4ccc(C(F)(F)F)cc4)(C2)C3)C(=O)Cn2c(SCc3cccc(F)c3F)cc(=O)c3ccccc32)CC1 |
| < 1 µM | 203 µg/mL (≈ 276 µM) | – | – | – | 6.74 | COCCN1CCC(N(Cc2ccc(-c3ccc(C(F)(F)F)cc3)cc2)C(=O)Cn2c(SCc3cccc(F)c3F)cc(=O)c3ccccc32)CC1 [RILAPLADIB] |
